± gives the expanded uncertainty stated by the source.
Assay: xn = mol fraction of the nth substance listed
Settings: 101 kPa, Liquid, Capillary tube (Ostwald / Ubbelohde) method, x1 = 0.38

CC(C)C(=O)O [2-methylpropanoic acid] + O
Settings	viscosity [mPa·s]
300.25 K	2.21 ± 0.02
300.33 K	2.205 ± 0.02
300.36 K	2.204 ± 0.02
300.49 K	2.197 ± 0.02
300.61 K	2.19 ± 0.02
300.66 K	2.187 ± 0.02
300.76 K	2.182 ± 0.02
300.87 K	2.176 ± 0.038
300.96 K	2.171 ± 0.038
301.09 K	2.164 ± 0.039
301.16 K	2.16 ± 0.039
301.26 K	2.154 ± 0.038
301.36 K	2.149 ± 0.038
301.49 K	2.142 ± 0.038
301.56 K	2.138 ± 0.038
301.85 K	2.122 ± 0.038
302.16 K	2.105 ± 0.019
302.46 K	2.088 ± 0.038

— the NIST ThermoML archive (doi:10.1016/j.fluid.2006.10.027)
